The record followed here is PubChem BioAssay AID179 (DTP/NCI, 2004).

This assay relates to CEM cells HIV-1 protection, formazan growth assay. Nature of the assay: NCI AIDS Antiviral Assay. As to conditions: for IC50: measured here: growth of uninfected CEM cells. In short, it runs like this: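 Human CEM cells, uninfected and HIV-1-infected, exposed to five drug concentrations; growth measured by soluble formazan assay and scored as percent protection from infection, with protecting compounds retested.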

Several values for one entry are separate records, joined by “and”; a condition that tells them apart may be missing. Equal values may be shown once. Activity calls are given as the source filed them.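 Rule for the calls: active = compounds giving half or more protection of infected cells from virus-caused growth loss, again on retest; inactive = the rest.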 *1 amine or outer side, *2 acyl side, *3 side chain or, on linkers, in order; H or OH if unused. Where a SMILES comes first, the peptide text is derived from it. Bridges are numbered along the chain shown (N, C = ends). [ ]: non-standard residue; d: D form. The star is where a group is joined. Fmoc = O=C(OCC1c2ccccc2-c2ccccc21)*; X2 = O=C(C(CCCCNO[*:3])N[*:1])[*:2]; Boc = CC(C)(C)OC(=O)*; OBn = c1ccc(CO*)cc1 Some results are limits rather than exact numbers.

Consider `O=C1OCC2=C1C(c1ccc(Cl)cc1)c1cc3c(cc1O2)OCO3` (centres undefined), for which the EC50 is greater than 200 µM and the concentration for half-maximal inhibition (IC50) was determined as 3.98 µM.

Regarding `O=C(Oc1ccc(OC(Oc2ccccc2)c2ccccc2)cc1)c1ccccc1` (centres undefined), the EC50 was greater than 200 µM and the 50% inhibitory concentration (IC50) came out at 44.7 µM. With `O=CC1CCCc2ccccc21` (centres undefined), the EC50 was greater than 44.7 µM and the 50% inhibitory concentration (IC50) is greater than 44.7 µM.

With `CCC(C)C(NC(=O)C(CC(C)C)NC(=O)CNC(=O)C(CC(N)=O)NC(=O)C(CC(=O)O)NC(=O)C(N)CC(C)C)C(=O)NC(CC(C)C)C(=O)NC(C)C(=O)NC(Cc1ccc(O)cc1)C(=O)O` (centres undefined) (H-LDNGLILAY-OH; configuration not given here), the EC50 was greater than 50.1 µM and the half-maximal inhibitory concentration (IC50) is greater than 50.1 µM. `CC1=NC(=Cc2cc(Br)cc(Br)c2)C(=O)N1n1c(-c2ccccc2)nc2ccccc2c1=O`: the EC50 was greater than 200 µM and the IC50 is 87.1 µM. Regarding `O=C([O-])C(=O)[N-]CCC[N-]C(=O)C(=O)[N-]CCC[N-]C(=O)C(=O)[O-].[Cu+2].[Cu+2].[Na+]`, the EC50 is greater than 200 µM and the half-maximal inhibitory concentration (IC50) came out at 17 µM. On to `Cc1nc2[nH]c(=S)[nH]c(=O)c2[nH]c1=O`, for which the EC50 was greater than 200 µM and the IC50 was greater than 200 µM. Take `O=C(O)C1Cc2c([nH]c3ccccc23)C(C2CCNC2=S)N1` (centres undefined): the result was inactive.

`O=C1N=NC(Cl)c2ccccc21` (centres undefined): the EC50 is greater than 28.8 µM and the IC50 is greater than 28.8 µM. `S=C(NC/C(Br)=C/Br)Nc1cccc2ccccc12`: the EC50 is greater than 200 µM and the IC50 turned out to be 36.3 µM.

On to `OC1OCC(COc2cc(Cl)c(Cl)cc2Cl)OC1O` (centres undefined), for which the EC50 was greater than 30.2 µM and the IC50 was greater than 30.2 µM. On to `Cc1c(Cl)cccc1N1C(=O)C(Cl)=C(Cl)C1=O`, for which the result was inactive. With `CCC1c2c(cc(=O)[nH]c2O)C(=O)N1C` (centres undefined), the EC50 is greater than 447 µM and the IC50 is greater than 447 µM. Turning to `CC(C)(C)C1=C(Br)C(OC(=O)C(F)(F)F)(C(C)(C)C)OP1(=O)c1ccccc1` (centres undefined), the EC50 is greater than 200 µM and the IC50 came to 74.1 µM. The corresponding values for `CCOC(=O)C1CCC2c3[nH]c4ccccc4c3CCN2C1=O` (centres undefined) are greater than 115 µM and greater than 115 µM. As for `COc1cccc(C=C2C(=O)c3ccccc3C2=O)c1`, the outcome was inactive. Consider `COC(=O)C1=C(O)c2cc(C)c(C)c(C#N)c2NC(=O)C1`, for which the EC50 is greater than 200 µM and the IC50 is greater than 200 µM.

Take `COc1ccc(/C(C)=C2\CCCN(Cc3ccccc3)C2)cc1`: the EC50 was greater than 200 µM and the IC50 was determined as 30.9 µM.

For `Cc1cc(-c2ccccc2)oc(=O)c1NC(=O)c1cnccn1`, the EC50 was greater than 200 µM and the half-maximal inhibitory concentration (IC50) is 141 µM. Regarding `C=CCCN(C=O)CCC/C(=C/CCCC)[Si](C)(C)C`, the EC50 is greater than 24.5 µM and the half-maximal inhibitory concentration (IC50) is greater than 24.5 µM.

`O=C(O)C1SCCS1`: the EC50 is greater than 200 µM and the IC50 is greater than 200 µM. Regarding `NC(=O)CNC(=O)C1CCCN1C(=O)C1CCCCNOC(=O)CCC(NC(=O)OCC2c3ccccc3-c3ccccc32)C(=O)NC(Cc2c[nH]c3ccccc23)C(=O)N1` (centres undefined) (Fmoc-EW[X2]PG-NH2; ester 1-3; configuration not given here), the EC50 is 70.8 µM and the IC50 is greater than 100 µM.

On to `CSC(SC)=C1C(=O)N(c2ccccc2)N=C1C`, for which the EC50 was greater than 200 µM and the half-inhibitory concentration (IC50) turned out to be 37.2 µM. As for `CC1(O)OC(=O)C2=C1CCC1C2CCC2(C)C(O)CCC12` (centres undefined), the EC50 is greater than 200 µM and the concentration for half-maximal inhibition (IC50) was greater than 200 µM. Regarding `COc1ccc2c(c1)OC[C@]1(C)c3cc(O)c(OCc4ccccc4)cc3O[C@H]21`, the outcome was inactive. For `N#CCCN(c1ccc(/C=C2\N=C(c3ccc(Cl)cc3)OC2=O)cc1)S(=O)(=O)c1ccccc1`, the EC50 is greater than 72.4 µM and the IC50 is greater than 72.4 µM. Regarding `CCC1(CCC#N)CCc2[nH]c3ccccc3c2C1=O` (centres undefined), the EC50 was greater than 200 µM and the IC50 is 174 µM. As for `COC1=C(N)C(=O)c2nc(-c3nc(C(=O)O)c(C)c(-c4ccc(OC)c(OC)c4O)c3N)ccc2C1=O`, the EC50 is greater than 4.9 µM; the IC50 is 0.00302 µM and 0.00191 µM.

With `COc1ccc(-c2nnc(-c3c(C)n(C)n(-c4ccccc4)c3=O)o2)cc1`, the EC50 is greater than 200 µM and the 50% inhibitory concentration (IC50) was greater than 200 µM. Turning to `CN(C)c1c(C2CC(O)C(CO)O2)c(=O)c1=O` (centres undefined), the EC50 was greater than 200 µM and the IC50 was greater than 200 µM. Take `CC(C)C(=O)OCN(C)c1nc(N(C)COC(=O)C(C)C)nc(N(C)COC(=O)C(C)C)n1`: the EC50 was greater than 200 µM and the half-inhibitory concentration (IC50) was determined as 18.6 µM. As for `O=C(CC(C(=O)c1cccs1)c1ccsc1)c1ccc(Cl)s1` (centres undefined), the EC50 was greater than 200 µM and the concentration for half-maximal inhibition (IC50) is 97.7 µM. With `N#CCC1COc2ccccc2O1` (centres undefined), the EC50 was greater than 200 µM and the 50% inhibitory concentration (IC50) is greater than 200 µM. For the compound `Clc1ccc(OCc2nnc(CCCCCCCCc3nnc(COc4ccc(Cl)cc4Cl)n3Nc3ccccc3)n2Nc2ccccc2)c(Cl)c1`, the EC50 is greater than 0.501 µM and the IC50 was greater than 0.501 µM. `Cc1c2c(cc3c1OCN(Cc1ccccc1)C3)CN(Cc1ccccc1)CO2`: the EC50 was greater than 200 µM and the IC50 came out at 30.9 µM.

With `CC(O)CCC(=O)c1ccoc1` (centres undefined), the EC50 is greater than 1480 µM and the IC50 was greater than 1480 µM.

As for `Cc1cc[c]([Sb](=[O])([OH])[c]2ccc(C)cc2)cc1`, the EC50 was greater than 5.01 µM and the IC50 amounted to 0.851 µM. As for `CN(C)c1ccc(/C=C(\NC(=O)c2ccccc2)C2=NC(CC(=O)O)C(=O)O2)cc1` (centres undefined), the EC50 is greater than 50.1 µM and the IC50 is greater than 50.1 µM. Take `CC(C)C(NC(=O)C(Cc1ccccc1)NC(=O)OC(C)(C)C)C(=O)NCC(=O)OCc1ccccc1` (stereo not drawn) (Boc-Phe-Val-Gly-OBn; configuration not given here): the EC50 was greater than 200 µM and the half-inhibitory concentration (IC50) was 10.7 µM. Consider `Cc1ccc2c(ccc(/C=C\c3cc(C)c4cccnc4c3O)[n+]2C)c1`, for which the EC50 is greater than 39.8 µM and the 50% inhibitory concentration (IC50) turned out to be 0.776 µM.

With `COC(=O)/C(=N/Nc1cccc(Cl)c1)C(C(=O)C(=O)Nc1cccc(Cl)c1C)c1nc2ccccc2nc1C` (centres undefined), the EC50 is greater than 12.9 µM and the IC50 is greater than 12.9 µM. Take `CCN(CC)CCNCc1cc(Cl)cc2c1OCOC2`: the EC50 was greater than 200 µM and the IC50 was greater than 200 µM. With `Cc1cccc(C)c1NC(=O)CCCC(=O)C1/C(=N/NC(=O)CC#N)CCC/C1=N\NC(=O)CC#N` (centres undefined), the EC50 was greater than 72.4 µM and the half-maximal inhibitory concentration (IC50) is greater than 72.4 µM. On to `CCN(CC)C/C(C)=C(/c1ccccc1)c1ccccc1S(N)(=O)=O`, for which the EC50 was greater than 200 µM and the IC50 is greater than 200 µM. As for `CC1=C(C(=O)NNC(=O)C[n+]2ccccc2)CC(C(=O)NNC(=O)C[n+]2ccccc2)=C(C)N1`, the EC50 is greater than 200 µM and the IC50 was greater than 200 µM. Take `O=c1c2cc([N+](=O)[O-])ccc2[nH]n1Cc1ccccc1Cl`: the EC50 was greater than 200 µM and the IC50 turned out to be 41.7 µM. Regarding `OC[C@@H](O)[C@H](O)[C@H](O)[C@@H](O)C1SCCCS1`, the EC50 was greater than 200 µM and the half-maximal inhibitory concentration (IC50) is greater than 200 µM. Take `O=C1c2ccccc2C(=O)c2c1nnn2-c1ccccc1`: the EC50 is greater than 200 µM and the IC50 was determined as 3.55 µM.

Turning to `O=C1N(c2ccccc2)C2(O)C(=O)c3ccccc3C2(O)N1c1ccccc1` (centres undefined), the EC50 is greater than 676 µM and the IC50 worked out at 110 µM. For `Cc1ccc2scc3c4ccccc4nc-3c2c1`, the EC50 is greater than 200 µM and the IC50 worked out at 0.479 µM. `CC1(C)C(O)c2ccccc2OC1N1CCN(C2Oc3ccccc3C(O)C2(C)C)CC1` (centres undefined): the EC50 was greater than 200 µM and the IC50 was greater than 200 µM. Turning to `c1cc(-c2nc3sc(-c4ccncc4)nc3s2)ccn1`, the EC50 was greater than 24.5 µM and the half-maximal inhibitory concentration (IC50) is greater than 24.5 µM. For the compound `CC1(Cl)CC2OC3(Br)C=CC(C)(O)C2(CC1Br)C3(C)C` (centres undefined), the EC50 was greater than 102 µM and the IC50 was greater than 102 µM.

For `CN(O)C(=O)Cc1ccccc1`, the EC50 is greater than 15.1 µM and the half-maximal inhibitory concentration (IC50) was greater than 15.1 µM. Turning to `O=C1c2ccccc2C(=O)C1C(c1ccc(F)cc1)C1C(=O)c2ccccc2C1=O`, the EC50 was greater than 46.8 µM and the concentration for half-maximal inhibition (IC50) was found to be 36.3 µM.

Take `O=C1CN(CCO)CC(=O)N2Cc3ccccc3CN12`: the outcome was inactive. With `CC(=O)Nc1cc2cc(NC=C(C#N)C#N)ccc2oc1=O`, the EC50 is greater than 37.2 µM and the IC50 was greater than 37.2 µM.

`CCOC(=O)C(/C=N\C(=S)Nc1c(CC)cccc1C(C)(C)C)=C(/O)c1ccccc1`: the EC50 was greater than 200 µM and the IC50 was greater than 200 µM.

With `O=C(/C(=C/c1ccc(Br)cc1)c1ccccc1)c1ccccc1`, the EC50 was greater than 14.5 µM and the concentration for half-maximal inhibition (IC50) was greater than 14.5 µM. With `N#Cc1nn(-c2ccc(Cl)cc2)c(N)c2c(=N)n3nc(-c4ccccc4)cc3nc12`, the EC50 is greater than 9.12 µM and the IC50 is greater than 9.12 µM. Regarding `COC(=O)NC[C@@H]1OCc2cc3c(cc2[C@]12CC=CCC2)OCO3`, the EC50 was greater than 107 µM and the IC50 is 6.92 µM.

As for `CC1=CC(C(=O)O)P(C)(=O)C1` (centres undefined), the result was inactive. In the case of `O=C1OCC2(CO1)CC1C=CC2C1` (centres undefined), the EC50 is greater than 200 µM and the IC50 was greater than 200 µM.

Take `CC(=O)C(=Cc1ccc(-c2ccccc2)cc1)C(C)=O`: the EC50 is greater than 19.5 µM and the IC50 was greater than 19.5 µM. As to `CC(C)(NC(=O)c1ccccc1SC(=O)CCCC[n+]1ccccc1)C(N)=O`, the 50% effective concentration (EC50) worked out at 1 µM and the IC50 was found to be 50.1 µM. The corresponding values for `C/C(O)=C(/C=N/C(=S)Nc1ccc(S(N)(=O)=O)cc1)C(=O)Nc1ccccc1C` are greater than 200 µM and greater than 200 µM.

For the compound `[N-]=[N+]=Nc1c([N+](=O)[O-])c(Cl)nc2ccccc12`, the EC50 was greater than 20 µM and the IC50 is 10 µM. Turning to `CCOC(=O)n1c2ccccc2c(=O)n1CCO`, the EC50 was greater than 200 µM and the IC50 was greater than 200 µM.

Consider `COC(=O)c1ccccc1N1C(=O)Cc2ccccc2C1=O`, for which the outcome was inactive. On to `Cn1c(NC(=O)C(=O)NC23CC4CC(CC(C4)C2)C3)nc2ccccc21`, for which the outcome was inactive. `N=C1C(=N)c2ccccc2-c2ccccc21`: the EC50 was greater than 200 µM and the half-maximal inhibitory concentration (IC50) is 0.407 µM.

For orientation: EC50 means the midpoint of the concentration-response curve. In general, IC50 refers to the concentration that inhibits the measured activity by half. Read a high IC50 as weaker potency.
